Experimental data published in article PMC6669827 (Toxins, 2019).
Where “and” joins values, the source holds several entries; their conditions need not be identical. Equal entries are not always repeated. Entries after “also recorded” stand apart in the source; their conditions may differ.

Legend:
human α7 nAChR = target: T1, human α7 nAChR (Homo sapiens, UniProt P36544); format: cell-based
T1 construct: expressed in transfected cells; host or cells: Xenopus laevis oocytes injected with cRNA (55.8 ng per oocyte); the cDNA clone was a gift of Dr. J. Michael McIntosh, University of Utah

human α3β2 nAChR = format: cell-based

T1 sequence (P36544 23-502): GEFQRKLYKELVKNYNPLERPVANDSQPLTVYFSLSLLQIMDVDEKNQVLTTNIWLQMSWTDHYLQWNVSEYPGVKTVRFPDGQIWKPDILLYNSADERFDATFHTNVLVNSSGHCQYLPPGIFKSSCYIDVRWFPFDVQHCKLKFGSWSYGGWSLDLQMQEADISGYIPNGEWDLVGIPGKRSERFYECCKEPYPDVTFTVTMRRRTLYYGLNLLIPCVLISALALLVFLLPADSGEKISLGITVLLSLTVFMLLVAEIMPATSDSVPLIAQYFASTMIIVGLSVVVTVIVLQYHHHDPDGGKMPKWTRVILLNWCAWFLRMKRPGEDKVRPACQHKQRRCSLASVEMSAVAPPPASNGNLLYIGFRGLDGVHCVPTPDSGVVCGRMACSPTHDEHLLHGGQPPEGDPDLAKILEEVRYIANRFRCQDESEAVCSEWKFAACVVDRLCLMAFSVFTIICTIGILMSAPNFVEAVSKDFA

Substance: αD-PiXXA [F7-3]
- reversibility of the effect of purified peptide on hα7 nAChR (in words) (human α7 nAChR): slowly reversible; also recorded: very slowly reversible
- selectivity hα7 over hα3β2 (in words) (human α7 nAChR): selective for hα7 nAChRs
- time to return to the initial activity after starting the washout, hα7 nAChR (human α7 nAChR): 21 min and ~ 21 min
- IC50 (human α7 nAChR; read-out: half-maximal inhibitory concentration (IC50) on hα7 nAChRs): 6.2 µM
- inhibition of the ACh-induced response on hα3β2 nAChRs by purified peptide (human α3β2 nAChR): 6.7 ± 3.1%
- effect on hα3β2 nAChRs (in words) (human α3β2 nAChR; 6.5 μM): did not significantly affect
